From patent US20200022957A1, “KINASE AND UBIQUITIN LIGASE INHIBITORS AND USES THEREOF” (ALDA S.R.L., priority 2015, published 2020) come the findings set out here.

For one series, the system named is hERG mutant (G601S). Put plainly: Proteostasis of hERG mutant in transfected CFBE cells (western blotting). Format: cell-based, human. The protocol: (§1) C. CFBE cells were treated with 5 μM oxozeaenol for 48 h, or with MLK3 siRNA, or with both, and the correction of the F508del-CFTR folding/trafficking defect was monitored by changes in the levels of band C. There was no additive effect observed with the combination of MLK3 downregulation and oxozeaenol treatment. The quantitated band C levels are expressed as mean±SD (n>3). D. CFBE cells were treated with 5 μM oxozeaenol for 24 h, and the activity of the JNK pathway was measured by western blotting for phospho c-jun levels and F508del-CFTR. […] E. CFBE cells were treated with flunarizine (at concentrations 6.25-50 μM) targeting the CAMKK2 pathway for 48 h and the effect on F508del-CFTR proteostasis measured by western blotting. Treatment with flunarizine increased the levels of band C of F508del-CFTR. […] F. CFBE cells transiently transfected with the P-glycoprotein mutant (P-gp DY490), the NCC mutant (R948X), or the hERG mutant (G601S) were treated with JNKi II for 24 h, and the effect of the drug on their proteostasis monitored by western blotting.
(§2) The level of correction obtained with these inhibitors is higher than the effects of the corrector compounds from which the pathways were deduced (FIG. 3A), and similar to, or higher than, the effects of VX-809. […]
(The hERG channel carries a current that helps repolarise heart muscle cells.)

Series [1] has as its system P-glycoprotein mutant (P-gp DY490). The series can be described thus: Proteostasis of P-glycoprotein mutant in transfected CFBE cells (western blotting). Format: cell-based. The protocol: as §1, §2
Background: In western blotting, separated proteins are transferred to a membrane and probed.

Another series relates to ATP7BH1069Q. Put plainly: Immunofluorescence assay for correction of ATP7B: cells with ATP7BH1069Q signal in the ER, HeLa cells. Format: cell-based, human. Conditions: 24 h, SB202190 5 μM, VX-745 1 μM, SP600125 2 μM, Oxozeaenol 5 μM, 100 μM CuSO4 2 h. The protocol: (A) HeLa cells were infected with Ad-ATP7BWT-GFP (Chesi et al., 2016) or Ad-ATP7BH1069Q-GFP, incubated overnight with 200 μM BCS, and incubated for an additional 2 h with 100 μM CuSO4. In response to Cu, ATP7BWT traffics from the Golgi to PM and vesicle, while ATP7BH1069Q are retained within the ER under high Cu conditions. Addition of p38 inhibitor SB202190 (5 μM), VX-745(1 μM), JNK inhibitor SP600125 (2 μM) and Oxozeaenol (5 μM) (as indicated in corresponding panels) to the cells 24 h corrects ATP7BH1069Q from the ER to PM and vesicles (arrows) (B) Cells were treated as in panel A. The percentage of the cells (average±SD, n=50 fields) with an ATP7B signal in the ER, were calculated.
Cells were fixed with 4% paraformaldehyde in 0.2 M HEPES for 10 mins, permeabilized, labeled with primary and secondary antibodies, and examined with a ZEISS LSM 700 confocal microscope equipped with a 63×1.4 numerical aperture oil objective. The cells were scored based on the disappearance of ATP7B from the ER.

For a further series, the system named is ATP7B H1069Q. Put plainly: Morphological assay of ATP7B H1069Q exit from ER to Golgi in HeLa cells (fluorescence microscopy). The format is cell-based, human. The note with it: ATP7B H1069Q; JNKi II 5 μM, 48 h; HeLa cells; fraction of protein in Golgi by fluorescence microscopy; DMSO control 32. The protocol: Cells were transfected with ATP7B-WT-GFP or ATP7B-H1069Q-GFP, incubated overnight with 200 μM BCS and/or drugs. Fixed cells were further labeled for TGN46 to mark and visualize the Golgi area under a confocal microscope. Under low copper conditions ATP7B-WT traffics to the Golgi from the ER, while ATP7B-H1069Q is retained within the ER. If the drug treatments induce the rescue of trafficking from the ER to the Golgi, the ATP7B-H1069Q-GFP fluorescence in the Golgi area increases. This is measured by quantifying (in 10 different microscopy fields in 100 cells) the increased in fluorescence of ATP7BWT-GFP or ATP7BH1069Q-GFP in the Golgi area (marked by TGN46) and normalizing this value to total cell fluorescence
CFBE or HeLa cells (in case of ATP7B) were transfected with constructs encoding the indicated mutant proteins and treated with JNKi II for 48 h.

In a further series the test system is ATP7B R778L. Put plainly: ATP7B R778L translocation from ER to Golgi in HeLa cells (fluorescence microscopy). Format: cell-based, human. The note with it: JNKi II 5 μM, 48 h, fraction of protein in Golgi by fluorescence microscopy, DMSO control 12.
The test system of a further series is NCC mutant (R948X). The series can be described thus: Proteostasis of NCC mutant in transfected CFBE cells (western blotting). The format is cell-based. The protocol:
as §1, §2

Another series concerns F508del-CFTR. The series can be described thus: F508del-CFTR proteostasis by western blotting (ER band B / Golgi-processed band C) in CFBE cells. The format is cell-based, human. Conditions: 48 h, concentration series. The protocol:
Cells were washed three times in ice-cold Dulbecco's phosphate-buffered saline, and lysed in RIPA buffer (150 mM NaCl, 1% Triton X-100, 0.5% deoxycholic acid, 0.1% SDS, 20 mM Tris-HCl, pH 7.4), supplemented with protease inhibitor cocktail and phosphatase inhibitors. The lysates were clarified by centrifugation at 15000×g for 15 min, and the supernatants were resolved by SDS-PAGE. BCA Protein Assay kit (Pierce) was used to quantitate protein levels before loading. The western blots were decorated with appropriate antibodies and developed using ECL. The blots were then exposed to x-ray films and exposure time was varied to obtain optimal signal. The x-ray films were then scanned and the bands were quantitated using ImageJ gel-analysis tool. The protein concentration and the exposures used for quantitation of the blots were optimized to be in a linear range of detection.
Inventors then turned to experimental validation of the role of the CORE genes in the regulation of F508del-CFTR proteostasis. Experiments were carried out using a characterised biochemical assay that detects both the amount of core-glycosylated CFTR trapped in the ER (band B with Western blotting) and the amount of CFTR fully glycosylated in the Golgi (most of which presumably resides at the PM; band C with Western blotting).

Source text for ATP7B R778L: Inventors next examined the effects of the MLK3 pathway inhibition on the proteostasis of other conformational disease mutants. Inventors transfected CFBE (and HeLa) cells with different conformational mutants (i.e., Sodium-chloride symporter [NCC, [MUT] mutant]; P-glycoprotein, [P-gp, [MUT] and DY490 mutants]; human Ether-a-go-go-Related Gene [hERG, [MUT] mutant]; Wilson's disease associated protein [ATP7B, [MUT] and [MUT] mutants]) and then treated cells with JNKi II and monitored these proteins by assessing changes in their glycosylation patterns (NCC, P-gp, hERG mutants) or in their intracellular movement from the ER to the Golgi complex (ATP7B mutants). […] CFBE or HeLa cells (in case of ATP7B) were transfected with constructs encoding the indicated mutant proteins and treated with JNKi II for 48 h.

With `O=C1c2ccccc2-c2n[nH]c3cccc1c23` [JNKi II], the “proteostasis of hERG mutant (G601S), levels of bands B and C” value with hERG mutant (G601S) (JNKi II 24 h) was “enhanced degradation”. Besides, the “Correction (% of wild type)” value in the series on hERG mutant (G601S) (table row 'hERG R948X', JNKi II 5 μM, 48 h, protein processed by the Golgi, DMSO control 44) is 24 % of wild type; in series [1] (P-Glycoprotein DY490, JNKi II 5 μM, 48 h, protein processed by the Golgi, DMSO control 24), 44 % of wild type; with ATP7B H1069Q, 80 % of wild type; in the series on ATP7B R778L it was 40 % of wild type; in the series on NCC mutant (R948X) (table row 'NCC G601S', JNKi II 5 μM, 48 h, protein processed by the Golgi, DMSO control 10), 9 % of wild type. The “trafficking of P-gp DY490 out of the ER (Golgi-associated band C)” value in series [1] (JNKi II 24 h) was “enhanced”. Moreover, the “percentage of the cells exhibiting ATP7BH1069Q in the ER” value in the series on ATP7BH1069Q is recorded as “reduced”. In addition, the “proteostasis of NCC mutant (R948X), levels of bands B and C” value in the series with NCC mutant (R948X) (JNKi II 24 h) is “enhanced degradation”. Further, the “levels of band B and band C of F508del-CFTR” value in the series on F508del-CFTR is “robust increases”.
